Where two headings read alike, the source gives them in different places.
Assays:
[1] = tested on: B16-F10 (murine melanoma); test: [3H] thymidine uptake cell proliferation assay, B16F10; assay type: cell-based; conditions: Mus musculus, read-out: Cell Proliferation Effects (IC50 (nM))
[2] = target: PKB, full-length recombinant bovine protein, alpha form (Bos taurus, UniProt Q01314); test: PKB inhibition in vitro enzyme assay (radioactive phosphate incorporation, scintillation counting); assay type: biochemical; conditions: for IC50: PKB in vitro enzyme assay, 15 min at room temperature
[3] = tested on: LL2 Lewis Lung human lung carcinoma; test: [3H] thymidine uptake cell proliferation assay, LL2; assay type: cell-based; conditions: LL/2, read-out: Cell Proliferation Effects (IC50 (nM))
[4] = tested on: HT-29 human colon carcinoma; test: [3H] thymidine uptake cell proliferation assay, HT29; assay type: cell-based; conditions: read-out: Cell Proliferation Effects (IC50 (nM))
[5] = tested on: B16-F1 (murine melanoma); test: [3H] thymidine uptake cell proliferation assay, B16F1; assay type: cell-based; conditions: Mus musculus, read-out: Cell Proliferation Effects (IC50 (nM))
[6] = tested on: M3 murine melanoma cells; test: [3H] thymidine uptake cell proliferation assay, M3; assay type: cell-based; conditions: Mus musculus, read-out: Cell Proliferation Effects (IC50 (nM))
[7] = tested on: A-549 (human lung carcinoma); test: [3H] thymidine uptake cell proliferation assay, A549; assay type: cell-based; conditions: A459 cells, read-out: Cell Proliferation in A459 IC50 in nm
[8] = tested on: DU-145 (human carcinoma); test: [3H] thymidine uptake cell proliferation assay, DU145; assay type: cell-based; conditions: read-out: Cell Proliferation Effects (IC50 (nM))
[9] = tested on: SKOV-3 (human ovarian carcinoma); test: [3H] thymidine uptake cell proliferation assay, SKOV3; assay type: cell-based; conditions: SK-OV-3, read-out: Cell Proliferation Effects (IC50 (nM))
[10] = tested on: U-87 (human glioma); test: [3H] thymidine uptake cell proliferation assay, U87; assay type: cell-based
Method: Compounds were added to culture at mid-logarithmic growth and incubated for 20 hours. (N=8 for the values+standard errors). […] Cell lines A-549 (human lung carcinoma), B16-F1 (murine melanoma), B16-F10 (murine melanoma), DU-145 (human […] carcinoma), LS-180 (human colon carcinoma), PC3 (human prostate carcinoma), SKOV-3 (human ovarian carcinoma), U-87 (human glioma), and NIH-3T3 (murine embryonic fibroblasts) were all cultured in DMEM supplemented with 10% fetal bovine serum. M3 murine melanoma cells were cultured in DMEM/F12 1:1, and HT-29 human colon carcinoma and LL2 Lewis Lung […] lung carcinoma were cultured in RPMI1640. All the foregoing cell lines were obtained from ATCC. All cells were passaged regularly using 0.25% Trypsin-EDTA in order to maintain cells at exponential growth for various experiments. LS 180 cells were passaged without trypsin and were physically scraped off the culture flasks. In vitro [^3H] thymidine uptake assay. Proliferation can be measured by quantifying the amount of [^3H] thymidine uptake into cells using a β-counter, and therefore is a well-established diagnostic tool to measure DNA synthesis within the cells. […] The cells were allowed to adhere to the plates via incubation at 37° C. in 5% CO2 for 12–14 hours. […] Then, 10 μL of the compound was added to the pre-existing 90 μL per well, and incubated further at 37° C. in 5% CO2 for 20 hours. To measure thymidine incorporation, cells were fixed onto the culture wells by slowly adding ¼^th volume of cold 50% TCA into each well (25 μL to each well) and incubated for 1–2 hours at 4° C. Wells were washed 5 times with tap water to remove any free [^3H] thymidine in the media, and air-dried completely at room temperature. Then, 100 μL of scintillation fluid was added to each well and the activity counted using a Wallac Microbeta Counter.

[11] = tested on: NIH-3T3 (murine embryonic fibroblasts); test: [3H] thymidine uptake cell proliferation assay, NIH3T3; assay type: cell-based; conditions: Mus musculus; NIH3T3, non-tumorigenic cell line; read-out: Cell Proliferation Effects (IC50 (nM))
[12] = tested on: PC3 (human prostate carcinoma); test: [3H] thymidine uptake cell proliferation assay, PC3; assay type: cell-based; conditions: PC-3, read-out: Cell Proliferation Effects (IC50 (nM))
[13] = for comparison; cited from earlier work
[14] = U87, read-out: Cell Proliferation IC50 in nm (starred: tested in U7 cells, not U87), read-out: Cell Proliferation IC50 in nm (starred: tested in U7 cells, not A459)

Sequence of PKB, full-length recombinant bovine protein, alpha form (Q01314 whole entry): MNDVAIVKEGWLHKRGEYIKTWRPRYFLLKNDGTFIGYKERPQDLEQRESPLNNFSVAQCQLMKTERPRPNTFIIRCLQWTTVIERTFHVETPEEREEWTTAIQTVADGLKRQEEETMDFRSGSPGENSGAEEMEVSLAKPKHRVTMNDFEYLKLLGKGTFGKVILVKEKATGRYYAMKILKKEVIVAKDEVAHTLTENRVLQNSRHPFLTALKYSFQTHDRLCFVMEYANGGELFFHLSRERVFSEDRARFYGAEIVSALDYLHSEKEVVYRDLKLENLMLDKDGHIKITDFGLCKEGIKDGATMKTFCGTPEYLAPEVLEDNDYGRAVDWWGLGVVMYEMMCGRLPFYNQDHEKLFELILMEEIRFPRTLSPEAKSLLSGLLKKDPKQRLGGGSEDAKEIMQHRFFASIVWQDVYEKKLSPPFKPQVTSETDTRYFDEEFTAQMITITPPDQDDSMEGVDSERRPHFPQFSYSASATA

Structure (SMILES) | IC50 [2] [µM] | IC50 [7] [µM] | other results
O=C1c2ccccc2-c2nn3nnnc3nc21 [KP-17483] | 15 | > 10 | IC50 [1]: 750 nM; PKB inhibition in in vitro enzyme assay (in words) [2]: found to inhibit PKB; IC50 [3]: 750 nM; IC50 [4]: 500 nM; IC50 [5]: 80 nM; IC50 [6]: 30 nM; IC50 [8]: 50 nM; IC50 [9]: 300 nM; IC50 ([10]; U-87 MG, U87, read-out: Cell Proliferation Effects (IC50 (nM))): 50 nM; IC50 [11]: 200 nM; IC50 [12]: 250 nM
O=C1c2ccccc2-c2nc3c(O)cccc3nc21 [KP-23172-001] | > 100 | > 10 | 
O=C(O)c1ccc2nc3c(nc2c1)-c1ccccc1C3=O [KP-23172-002] | > 100 | > 10 | 
O=C(c1ccccc1)c1ccc2nc3c(nc2c1)-c1ccccc1C3=O [KP-23172-003] | > 100 | > 10 | 
O=C1c2ccccc2-c2nc3c(O)nc(O)nc3nc21 [KP-23172-004] | > 100 | > 10 | 
Cn1c(=O)c2nc3c(nc2n(C)c1=O)C(=O)c1ccccc1-3 [KP-23172-005] | > 100 | > 10 | 
O=C1c2ccccc2-c2nc3cc(Cl)c(Cl)cc3nc21 [KP-23172-006] | > 100 | > 10 | 
Cc1cc2nc3c(nc2cc1C)-c1ccccc1C3=O [KP-23172-007] | > 100 | > 10 | 
c1ccc2c(c1)Cc1nn3nnnc3nc1-2 [KP-23172-008] | > 100 | > 10 | 
O=C1c2ccccc2-c2nc3c(O)ncnc3nc21 [KP-23172-009] | > 100 | > 10 | 
Oc1ncnc2nc3c(nc12)CCc1ccccc1-3 [KP-23172-010] | > 100 |  | 
c1ccc2c(c1)CCc1nc3nnnn3nc1-2 [KP-23172-011] | > 100 |  | 
Oc1cccc2nc3c(nc12)CCc1ccccc1-3 [KP-23172-012] | > 100 |  | 
Cc1cc2nc3c(nc2cc1C)-c1ccccc1CC3 [KP-23172-013] | > 100 |  | 
O=C1c2ccccc2-c2nc3c(nc21)CCCC3 [KP-23172-015] | > 100 | > 10 | 
O=C1c2ccccc2-c2nccnc21 [KP-23172-016] | > 100 |  | 

Structure (SMILES) | IC50 [2] [µM] | IC50 [7] [µM] | other results
Cc1cc2nc3c(nc2cc1C)-c1ccccc1/C3=N\Nc1ccccc1 [KP-23172-017] | > 100 |  | 
c1ccc2c(c1)[nH]c1nn3nnnc3nc12 [KP-23172-018] | > 100 |  | IC50 [10, 14]: > 10000 nM
N#Cc1nc2c(nc1C#N)-c1ccccc1C2=O [KP-23172-019] | > 100 |  | IC50 [10, 14]: > 10000 nM
O=C1c2cc3ccccc3cc2-c2nc3nnnn3nc21 [KP-23172-020] | > 100 | 0.1 | 
O=C(O)c1nc2c(nc1C(=O)O)-c1ccccc1C2=O [KP-23172-021] | > 100 | > 10 | 
O=c1c2ccccc2c2nc3c(=S)nc(S)c3nc12 [KP-23172-022] | > 100 |  | IC50 [10, 14]: 5000 nM
N/N=C1/c2ccccc2-c2nc3nnnn3nc21 [KP-23172-023] | > 100 | 0.5 | 
c1ccc(N/N=C2/c3ccccc3-c3nc4nnnn4nc32)cc1 [KP-23172-024] | > 100 | > 10 | 
c1ccc(N/N=C2\C(=N/Nc3ccccc3)Nc3ccccc32)cc1 [KP-23172-025] | > 100 |  | 
O=C1c2ccccc2-c2nc3cc4ccccc4cc3nc21 [KP-23172-026] | > 100 |  | 
N#CC(=O)N/N=C1/c2ccccc2-c2nc3nnnn3nc21 [KP-23172-027] | > 100 | 0.5 | 
Cc1ccc2nc3c(nc2c1)-c1ccccc1C3=O [KP-23172-028] | > 100 | > 10 | 
Cc1ccc2nc3c(nc2c1)C(=O)c1ccccc1-3 [KP-23172-029] | > 100 | > 10 | 
COc1ccc2c(c1)-c1nc3nnnn3nc1C2=O [KP-23172-030] | 20 | 0.046 | 
O=C1c2ccccc2-c2nc3c4ccccc4c4ccccc4c3nc21 [KP-23172-31] | > 100 |  | 
Clc1ccc(COC(Cn2ccnc2)c2ccc(Cl)cc2Cl)c(Cl)c1 (centres unmarked) [miconazole] |  |  | 1:1 binding constant (reported in the literature) [13]: 363
